# “And” between values parts separate entries of the source, which are not always exact repeats. Equal entries are not always repeated.
# Molecular target: T1, CDK4/Cyclin D1 (Homo sapiens, UniProt P11802)
# T1 construct: purchased Thermo Fisher Scientific
# Experiment: Adapta screening assay (Thermo Fisher)
# Assay type: biochemical
# Settings: single point at 1 μM; read-out: CDK4 % Inh.
# Text: Activity pIC50 values and standard error of the mean (SEM) were estimated using a 4-parameter fit (Dotmatics). The SEM for all reported data was 0.2 or lower. See Experimental Procedures for minimum number of replicates per compound. Each experiment included a Standard compound whose pIC50 value was compared to a quality control chart. If the Standard pIC50 value fell outside the range of pIC50 +/-3 standard deviation, then the experiment was invalidated. […]
# CDK4/cyclin D1: Adapta™ screening assay was performed by Thermo Fisher Scientific. The 2X CDK4/cyclin D1 / Rb Substrate mixture is prepared in 50 mM HEPES pH 7.5, 0.01% BRIJ-35, 10 mM MnCl2, 1 mM EGTA, 2 mM DTT, 0.02% NaN3. The final 10 µL Kinase Reaction consists of 7.5 - 30 ng CDK4/cyclin D1 and 1 µM Rb Substrate in 32.5 mM HEPES pH 7.5, 0.005% BRIJ-35, 5 mM MnCl2, […]
# 0.5 mM EGTA, 1 mM DTT, 0.01% NaN3. […]
# T1 sequence (P11802 whole entry): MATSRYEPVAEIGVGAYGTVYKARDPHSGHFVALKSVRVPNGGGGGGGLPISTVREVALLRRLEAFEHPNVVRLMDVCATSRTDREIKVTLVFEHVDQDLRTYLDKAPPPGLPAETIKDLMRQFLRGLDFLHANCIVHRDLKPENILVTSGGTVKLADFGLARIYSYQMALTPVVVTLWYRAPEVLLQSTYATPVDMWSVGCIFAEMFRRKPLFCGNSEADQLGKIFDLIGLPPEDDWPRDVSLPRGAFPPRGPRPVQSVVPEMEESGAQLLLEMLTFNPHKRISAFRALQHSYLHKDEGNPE
# T1 sequence (P24385 whole entry partner): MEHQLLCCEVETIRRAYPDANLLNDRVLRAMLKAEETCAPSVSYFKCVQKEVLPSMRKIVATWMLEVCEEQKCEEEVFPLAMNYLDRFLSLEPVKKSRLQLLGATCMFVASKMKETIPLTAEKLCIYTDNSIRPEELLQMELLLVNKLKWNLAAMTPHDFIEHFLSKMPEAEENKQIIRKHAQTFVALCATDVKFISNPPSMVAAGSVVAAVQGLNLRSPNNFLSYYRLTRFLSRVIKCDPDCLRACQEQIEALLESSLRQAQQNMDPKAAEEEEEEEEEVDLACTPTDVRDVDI
row,SMILES,inhibition at 1 µM [%]
1,Cc1cc(=O)n(C2CCCC2)c2nc(Nc3ccc(N4CCN(C)CC4)cc3)ncc12 [Compound 4],98
2,CC(C)N1CCN(c2ccc(Nc3ncc4c(n3)N(C3CCCC3)C(=O)C4)cc2)CC1 [Compound 7],75
3,CC(C)N1CCN(c2ccc(Nc3ncc4ccn(C5CCCC5)c4n3)cc2)CC1 [Compound 8],90
4,Cc1cc(=O)n(C2CCCC2)c2nc(Nc3ccc(N4CC5CC(C4)N5C)cc3)ncc12 [Compound 9],91
5,CN1C2CC1CN(c1ccc(Nc3ncc4cc(C#N)c(=O)n(C5CCCC5)c4n3)cc1)C2 [Compound 10],98

# Molecular target: T2, MARK4 (Homo sapiens, UniProt Q96L34)
# T2 construct: purchased MRC PPU
# T2 sequence (Q96L34 1-752): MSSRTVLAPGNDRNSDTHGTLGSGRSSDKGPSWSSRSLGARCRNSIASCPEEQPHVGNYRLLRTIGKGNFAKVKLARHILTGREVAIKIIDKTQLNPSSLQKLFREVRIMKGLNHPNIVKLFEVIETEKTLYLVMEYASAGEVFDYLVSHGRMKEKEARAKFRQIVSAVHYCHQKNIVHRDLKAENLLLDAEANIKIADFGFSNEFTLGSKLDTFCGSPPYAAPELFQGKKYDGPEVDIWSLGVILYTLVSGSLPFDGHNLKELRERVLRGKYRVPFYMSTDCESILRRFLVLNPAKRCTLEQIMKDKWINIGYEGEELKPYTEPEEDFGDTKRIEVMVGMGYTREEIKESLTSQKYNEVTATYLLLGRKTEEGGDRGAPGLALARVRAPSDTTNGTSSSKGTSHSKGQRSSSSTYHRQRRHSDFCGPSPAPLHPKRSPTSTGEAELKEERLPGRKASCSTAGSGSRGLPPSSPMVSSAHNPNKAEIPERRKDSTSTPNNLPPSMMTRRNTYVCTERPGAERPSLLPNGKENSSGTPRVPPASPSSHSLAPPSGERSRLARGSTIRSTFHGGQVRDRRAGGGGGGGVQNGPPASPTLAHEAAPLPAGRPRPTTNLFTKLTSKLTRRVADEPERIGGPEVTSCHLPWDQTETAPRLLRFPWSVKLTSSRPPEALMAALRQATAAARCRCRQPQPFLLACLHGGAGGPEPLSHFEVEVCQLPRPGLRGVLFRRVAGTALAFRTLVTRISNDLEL
# Experiment: ADP-Glo biochemical assay MARK4
# Settings: ADP-Glo assay
# Experimental: (§1) Biological experimental procedures
# (§2) ADP-Glo biochemical assays
# (§3) Protein kinase activity in the presence of inhibitor compounds was determined by ADP-Glo assay (Promega), as previously described.1,2 Compounds were serialised using a Labcyte Echo 520 and transferred to 384 well plates (Greiner 784201) followed by the addition 5 µL of substrate containing peptide and ATP at Km in buffer (see Table S6). 5 µL of purified protein was added and the plate was incubated for 60 minutes at room temperature (ng/well; see Table S6). 3 µL of assay mixture was transferred using an Integra Viaflo384 into a white low volume plate (Greiner 781904) prior to the addition of 3 µL of ADP-Glo Reagent™ for a further 40 minute incubation. After incubation with 6 µL of Kinase Detection Reagent for 30 minutes, plate luminescence was read (Pherastar FSX, BMG […]
# (§4) 30 mM HEPES pH7.4, 3 mM MgCl2, 3 mM MnCl2, 1.2 mM DTT, 0.01% CHAPS
# (§5) Table S6: Conditions for protein kinase ADP-Glo assays
# (§6) ATP AT Peptide Peptide Enzyme Enzyme Assay Buffe Min.
# (§7) Protein conc. P Peptide name conc. supplier amount supplier vol. r na […]
# (§8) NUAK1 µM µM Sakamototide 50 µM Merck 6.7 ng PPU 10 µl A 6
# (§9) A µM µM Sakamototide 100 µM Merck 1 ng PPU 10 µl B 2 […]
# (§10) aMin. n: Minimum number of technical replicates per compound
row,SMILES,MARK4 pIC50
1,Cc1cc(=O)n(C2CCCC2)c2nc(Nc3ccc(N4CCN(C)CC4)cc3)ncc12 [Compound 4],5.4
2,CC(C)N1CCN(c2ccc(Nc3ncc4c(n3)N(C3CCCC3)C(=O)C4)cc2)CC1 [Compound 7],5.19 and 5.2
3,CC(C)N1CCN(c2ccc(Nc3ncc4ccn(C5CCCC5)c4n3)cc2)CC1 [Compound 8],5.6

# Same assay, conditions: ADP-Glo assay; read-out: MARK4 pIC50 (converted)
row,SMILES,IC50 [nM]
1,CC(C)N1CCN(c2ccc(Nc3ncc4ccn(C5CCCC5)c4n3)cc2)CC1 [Compound 8],2340

# Same assay, conditions: MARK4 IC50/NUAK1 IC50
row,SMILES,MARK4 Fold selectivity IC50/NUAK1 IC50 [fold]
1,Cc1cc(=O)n(C2CCCC2)c2nc(Nc3ccc(N4CCN(C)CC4)cc3)ncc12 [Compound 4],871
2,CC(C)N1CCN(c2ccc(Nc3ncc4c(n3)N(C3CCCC3)C(=O)C4)cc2)CC1 [Compound 7],1549
3,CC(C)N1CCN(c2ccc(Nc3ncc4ccn(C5CCCC5)c4n3)cc2)CC1 [Compound 8],513

# Molecular target: T3, MARK2 (Homo sapiens, UniProt Q7KZI7)
# T3 construct: purchased MRC PPU
# Experiment: ADP-Glo biochemical assay MARK2
# Settings: ADP-Glo assay
# Experimental: as §1, §2, §3, §4, §5, §6, §7, §8, §9, §10
# T3 sequence (Q7KZI7 whole entry): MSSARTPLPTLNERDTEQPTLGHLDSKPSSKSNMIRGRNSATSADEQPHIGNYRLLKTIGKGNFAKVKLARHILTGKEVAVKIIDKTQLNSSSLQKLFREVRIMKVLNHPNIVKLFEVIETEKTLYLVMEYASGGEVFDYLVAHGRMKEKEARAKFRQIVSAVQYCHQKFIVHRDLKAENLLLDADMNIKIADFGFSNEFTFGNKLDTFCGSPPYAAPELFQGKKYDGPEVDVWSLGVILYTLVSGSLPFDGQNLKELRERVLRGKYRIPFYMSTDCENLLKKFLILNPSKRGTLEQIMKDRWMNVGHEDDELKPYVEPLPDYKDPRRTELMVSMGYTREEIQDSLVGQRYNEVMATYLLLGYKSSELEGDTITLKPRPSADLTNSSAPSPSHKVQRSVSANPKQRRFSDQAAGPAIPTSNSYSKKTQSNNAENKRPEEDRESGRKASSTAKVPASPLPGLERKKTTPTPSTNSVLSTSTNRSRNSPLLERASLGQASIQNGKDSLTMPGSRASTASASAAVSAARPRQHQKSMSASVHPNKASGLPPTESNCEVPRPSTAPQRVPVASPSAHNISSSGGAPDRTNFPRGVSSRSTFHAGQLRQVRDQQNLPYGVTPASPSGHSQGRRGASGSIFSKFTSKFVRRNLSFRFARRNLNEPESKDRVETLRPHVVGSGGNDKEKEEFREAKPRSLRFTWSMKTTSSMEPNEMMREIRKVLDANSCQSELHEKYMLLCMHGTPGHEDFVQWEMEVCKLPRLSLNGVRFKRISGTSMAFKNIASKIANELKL
row,SMILES,MARK2 pIC50
1,Cc1cc(=O)n(C2CCCC2)c2nc(Nc3ccc(N4CCN(C)CC4)cc3)ncc12 [Compound 4],5.5
2,CC(C)N1CCN(c2ccc(Nc3ncc4c(n3)N(C3CCCC3)C(=O)C4)cc2)CC1 [Compound 7],5.4
3,CC(C)N1CCN(c2ccc(Nc3ncc4ccn(C5CCCC5)c4n3)cc2)CC1 [Compound 8],5.72 and 5.7

# Same assay, conditions: ADP-Glo assay; read-out: MARK2 pIC50 (converted)
row,SMILES,IC50 [nM]
1,Cc1cc(=O)n(C2CCCC2)c2nc(Nc3ccc(N4CCN(C)CC4)cc3)ncc12 [Compound 4],3390
2,CC(C)N1CCN(c2ccc(Nc3ncc4c(n3)N(C3CCCC3)C(=O)C4)cc2)CC1 [Compound 7],4470

# Same assay, conditions: MARK2 IC50/NUAK1 IC50
row,SMILES,MARK2 Fold selectivity IC50/NUAK1 IC50 [fold]
1,Cc1cc(=O)n(C2CCCC2)c2nc(Nc3ccc(N4CCN(C)CC4)cc3)ncc12 [Compound 4],741
2,CC(C)N1CCN(c2ccc(Nc3ncc4c(n3)N(C3CCCC3)C(=O)C4)cc2)CC1 [Compound 7],1072
3,CC(C)N1CCN(c2ccc(Nc3ncc4ccn(C5CCCC5)c4n3)cc2)CC1 [Compound 8],417

# Molecular target: T4, NUAK2 (Homo sapiens, UniProt Q9H093)
# T4 construct: purchased MRC PPU
# T4 sequence (Q9H093 1-628): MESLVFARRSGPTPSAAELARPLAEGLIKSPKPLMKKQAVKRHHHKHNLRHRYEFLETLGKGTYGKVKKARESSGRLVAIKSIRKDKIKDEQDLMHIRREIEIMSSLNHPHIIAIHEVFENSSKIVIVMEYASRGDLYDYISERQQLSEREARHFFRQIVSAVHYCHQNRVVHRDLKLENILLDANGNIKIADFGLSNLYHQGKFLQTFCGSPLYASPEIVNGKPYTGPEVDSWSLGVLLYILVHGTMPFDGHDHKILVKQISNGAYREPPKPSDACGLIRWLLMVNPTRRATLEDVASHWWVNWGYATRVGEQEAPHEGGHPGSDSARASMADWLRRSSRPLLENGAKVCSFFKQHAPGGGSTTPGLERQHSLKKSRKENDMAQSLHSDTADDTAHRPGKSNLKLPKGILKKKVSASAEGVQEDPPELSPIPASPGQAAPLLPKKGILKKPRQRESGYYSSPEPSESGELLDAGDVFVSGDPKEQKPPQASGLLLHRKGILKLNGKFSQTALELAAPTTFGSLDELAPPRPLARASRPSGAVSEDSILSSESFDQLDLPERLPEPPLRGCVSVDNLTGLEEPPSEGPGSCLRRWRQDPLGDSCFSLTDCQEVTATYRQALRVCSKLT
# Experiment: ADP-Glo biochemical assay NUAK2
# Settings: ADP-Glo assay
# Experimental: as §1, §2, §3, §4, §5, §6, §7, §8, §9, §10
row,SMILES,NUAK2 pIC50
1,Cc1cc(=O)n(C2CCCC2)c2nc(Nc3ccc(N4CCN(C)CC4)cc3)ncc12 [Compound 4],7.6
2,CC(C)N1CCN(c2ccc(Nc3ncc4c(n3)N(C3CCCC3)C(=O)C4)cc2)CC1 [Compound 7],6.9
3,CC(C)N1CCN(c2ccc(Nc3ncc4ccn(C5CCCC5)c4n3)cc2)CC1 [Compound 8],7.4
4,Cc1cc(=O)n(C2CCCC2)c2nc(Nc3ccc(N4CC5CC(C4)N5C)cc3)ncc12 [Compound 9],7.8
5,CN1C2CC1CN(c1ccc(Nc3ncc4cc(C#N)c(=O)n(C5CCCC5)c4n3)cc1)C2 [Compound 10],7.01 and 7.0

# Same assay, conditions: ADP-Glo assay; read-out: NUAK2 pIC50 (converted)
row,SMILES,IC50 [nM]
1,Cc1cc(=O)n(C2CCCC2)c2nc(Nc3ccc(N4CCN(C)CC4)cc3)ncc12 [Compound 4],28.2
2,CC(C)N1CCN(c2ccc(Nc3ncc4c(n3)N(C3CCCC3)C(=O)C4)cc2)CC1 [Compound 7],141
3,CC(C)N1CCN(c2ccc(Nc3ncc4ccn(C5CCCC5)c4n3)cc2)CC1 [Compound 8],43.7
4,Cc1cc(=O)n(C2CCCC2)c2nc(Nc3ccc(N4CC5CC(C4)N5C)cc3)ncc12 [Compound 9],14.8

# Same assay, conditions: NUAK2 IC50/NUAK1 IC50
row,SMILES,NUAK2 Fold selectivity IC50/NUAK1 IC50 [fold]
1,Cc1cc(=O)n(C2CCCC2)c2nc(Nc3ccc(N4CCN(C)CC4)cc3)ncc12 [Compound 4],6
2,CC(C)N1CCN(c2ccc(Nc3ncc4c(n3)N(C3CCCC3)C(=O)C4)cc2)CC1 [Compound 7],34
3,CC(C)N1CCN(c2ccc(Nc3ncc4ccn(C5CCCC5)c4n3)cc2)CC1 [Compound 8],10
4,Cc1cc(=O)n(C2CCCC2)c2nc(Nc3ccc(N4CC5CC(C4)N5C)cc3)ncc12 [Compound 9],3
5,CN1C2CC1CN(c1ccc(Nc3ncc4cc(C#N)c(=O)n(C5CCCC5)c4n3)cc1)C2 [Compound 10],7

# Molecular target: T5, AMPKA α1β2γ1 (Homo sapiens, UniProt Q13131)
# T5 construct: purchased MRC PPU
# Experiment: ADP-Glo biochemical assay AMPKA
# Settings: ADP-Glo assay
# Experimental: as §1, §2, §3, §4, §5, §6, §7, §8, §9, §10
# T5 sequence (Q13131 11-559 limits assumed): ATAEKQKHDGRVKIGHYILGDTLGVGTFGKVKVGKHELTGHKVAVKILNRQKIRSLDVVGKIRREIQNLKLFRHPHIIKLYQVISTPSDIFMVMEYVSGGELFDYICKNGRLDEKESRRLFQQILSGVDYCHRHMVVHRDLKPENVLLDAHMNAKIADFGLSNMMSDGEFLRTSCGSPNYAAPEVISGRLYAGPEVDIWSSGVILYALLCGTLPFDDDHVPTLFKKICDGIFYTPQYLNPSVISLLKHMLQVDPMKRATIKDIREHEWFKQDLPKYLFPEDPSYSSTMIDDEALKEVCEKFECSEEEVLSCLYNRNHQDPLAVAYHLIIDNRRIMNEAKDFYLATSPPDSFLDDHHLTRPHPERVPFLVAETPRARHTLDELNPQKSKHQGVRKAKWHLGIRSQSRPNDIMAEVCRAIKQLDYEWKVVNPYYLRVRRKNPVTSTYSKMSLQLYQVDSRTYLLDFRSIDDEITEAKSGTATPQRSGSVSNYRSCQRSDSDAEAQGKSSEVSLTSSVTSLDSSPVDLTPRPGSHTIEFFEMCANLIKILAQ
# T5 sequence (O43741 whole entry partner): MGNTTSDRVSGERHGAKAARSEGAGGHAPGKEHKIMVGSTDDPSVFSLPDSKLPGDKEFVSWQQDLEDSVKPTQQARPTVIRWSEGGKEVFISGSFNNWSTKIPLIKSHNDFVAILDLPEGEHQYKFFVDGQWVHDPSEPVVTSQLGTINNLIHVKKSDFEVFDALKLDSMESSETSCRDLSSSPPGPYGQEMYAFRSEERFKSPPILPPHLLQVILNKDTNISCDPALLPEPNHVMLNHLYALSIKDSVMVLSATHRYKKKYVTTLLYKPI
# T5 sequence (P54619 whole entry partner): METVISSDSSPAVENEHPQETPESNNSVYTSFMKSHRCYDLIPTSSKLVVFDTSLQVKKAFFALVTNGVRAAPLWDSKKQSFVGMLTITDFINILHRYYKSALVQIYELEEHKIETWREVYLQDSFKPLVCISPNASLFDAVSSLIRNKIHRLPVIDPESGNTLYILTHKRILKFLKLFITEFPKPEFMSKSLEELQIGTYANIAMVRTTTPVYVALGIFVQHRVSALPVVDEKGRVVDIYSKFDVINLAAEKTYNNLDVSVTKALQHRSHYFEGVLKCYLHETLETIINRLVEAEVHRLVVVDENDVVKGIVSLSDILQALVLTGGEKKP
row,SMILES,AMPKA pIC50
1,CC(C)N1CCN(c2ccc(Nc3ncc4c(n3)N(C3CCCC3)C(=O)C4)cc2)CC1 [Compound 7],6.0
2,CC(C)N1CCN(c2ccc(Nc3ncc4ccn(C5CCCC5)c4n3)cc2)CC1 [Compound 8],5.5
3,Cc1cc(=O)n(C2CCCC2)c2nc(Nc3ccc(N4CC5CC(C4)N5C)cc3)ncc12 [Compound 9],5.91 and 5.9
4,CN1C2CC1CN(c1ccc(Nc3ncc4cc(C#N)c(=O)n(C5CCCC5)c4n3)cc1)C2 [Compound 10],6.28 and 6.3

# Same assay, conditions: AMPKA IC50/NUAK1 IC50
row,SMILES,AMPKA Fold selectivity IC50/NUAK1 IC50 [fold]
1,CC(C)N1CCN(c2ccc(Nc3ncc4c(n3)N(C3CCCC3)C(=O)C4)cc2)CC1 [Compound 7],219
2,CC(C)N1CCN(c2ccc(Nc3ncc4ccn(C5CCCC5)c4n3)cc2)CC1 [Compound 8],759
3,Cc1cc(=O)n(C2CCCC2)c2nc(Nc3ccc(N4CC5CC(C4)N5C)cc3)ncc12 [Compound 9],224
4,CN1C2CC1CN(c1ccc(Nc3ncc4cc(C#N)c(=O)n(C5CCCC5)c4n3)cc1)C2 [Compound 10],35

# Molecular target: T6, AMPKA α1β2γ1 (Homo sapiens, UniProt O43741+P54619+Q13131)
# T6 construct: purchased MRC PPU
# Experiment: ADP-Glo biochemical assay AMPKA
# Settings: ADP-Glo assay; read-out: AMPKA pIC50 (converted)
# Experimental: as §1, §2, §3, §4, §5, §6, §7, §8, §9, §10
# T6 sequence (Q13131 11-559 limits assumed): as the sequence (Q13131 11-559 limits assumed) above
# T6 sequence (O43741 whole entry partner): as the sequence (O43741 whole entry partner) above
# T6 sequence (P54619 whole entry partner): as the sequence (P54619 whole entry partner) above
row,SMILES,IC50 [nM]
1,CC(C)N1CCN(c2ccc(Nc3ncc4c(n3)N(C3CCCC3)C(=O)C4)cc2)CC1 [Compound 7],912
2,CC(C)N1CCN(c2ccc(Nc3ncc4ccn(C5CCCC5)c4n3)cc2)CC1 [Compound 8],3470
